From patent US20120264685A1 (priority 2009, published 2012)
Where a SMILES comes first, the peptide text is derived from it. [ ]: non-standard residue; d: D form. ξ: configuration not given here. ξαMeBip(2'-Et,4'-OMe) = CCc1cc(OC)ccc1-c1ccc(CC(C)(N)C(=O)O)cc1; ξBip(2'-Et-4'-OMe) = CCc1cc(OC)ccc1-c1ccc(CC(N)C(=O)O)cc1; ξαMe(hhPhe) = CC(N)(CCCc1ccccc1)C(=O)O; ξαMePhe(2-F) = CC(N)(Cc1ccccc1F)C(=O)O; ξαMeD = CC(N)(CC(=O)O)C(=O)O; ξαMeP = CC1(C(=O)O)CCCN1; ξαMeS = CC(N)(CO)C(=O)O

Key:
[1] = Stability in human plasma; assay type: in vitro ADME; conditions: 2 μM, 37° C.; for half-life: human, plasma, read-out: half-life (t1/2) in human plasma
Experimental: (§1) Different peptidomimetics (final concentration 2 μM) were incubated with either DPP IV (1:25 mU) or pooled human plasma (7.5 μL) or simulated gastric fluid (pH 1.5; composition HCl, NaCl and Pepsin) or simulated intestinal fluid (pH 7.5) or human liver microsomes, for 0, 2, 4, 6, 12 and 24 h (37° C.; 50 mM triethanolamine-HCl buffer; pH 7.8). […] Reactions were terminated by the addition of TFA/H2O ([…], 10% (v/v)). The reaction products were then applied to a Vydac C18 analytical column (4.6×250-mm) and the major degradation fragment separated from intact peptidomimetic. The column was equilibrated with TFA/H20, at a flow rate of 1 mL/min. Using 0.1% (v/v) TFA in 70% acetonitrile/H2O, the concentration of acetonitrile in the eluting solvent was raised from 0% to 28% over 10 min and from 28% to 42% over 30 min. The absorbance was monitored at 206 nm using UV detector and peaks were collected manually prior to ESI-MS analysis. Area under the curve was measured for test peptidomimetics and their metabolites and percentage degradation were calculated at each time point over a period of 24 h.

[2] = Stability in liver microsomes; assay type: in vitro ADME, human; conditions: 2 μM, 37° C.; for half-life: human, microsomes, read-out: half-life (t1/2) in liver microsomes
Experimental: (§2) Reactions were terminated by the addition of TFA/H2O ([…], 10% (v/v)). […] The column was equilibrated with TFA/H20, at a flow rate of 1 mL/min. […] The absorbance was monitored at 206 nm using UV detector and peaks were collected manually prior to ESI-MS analysis.

[3] = Stability in simulated gastric fluid; assay type: in vitro ADME; conditions: 2 μM, 37° C.; for % degradation in 24 h when incubated with simulated gastric fluid: pH 1.5, 24 h; for half-life: simulated gi fluid, pH 1.5, read-out: half-life (t1/2) in simulated gastric fluid
Experimental: as §2

[4] = tested on: RIN5F (Rat Insulinoma) cells; test: In vitro glucose-dependent insulin secretion (RIN5F cell assay); assay type: cell-based; conditions: 16.7-mM glucose load, n = 3, mean ± S.D.
How it was run: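 Rat RIN5F cells were preincubated 40 min in Krebs-Ringer buffer with 1.1 mM glucose and 0.5% BSA, pH 7.4, then exposed to test peptidomimetics for 30 min at 37 °C with 16.7 mM or 0 mM glucose. Supernatant insulin was measured by rat insulin ELISA and normalised to total protein (BCA), as pg/μg.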

[5] = Stability in simulated intestinal fluid; assay type: in vitro ADME; conditions: 2 μM, 37° C.; for % degradation in 24 h when incubated with simulated intestinal fluid: pH 7.5, 24 h; for half-life: simulated gi fluid, pH 7.5, read-out: half-life (t1/2) in simulated intestinal fluid
Experimental: as §2

[6] = biological target: DPP IV enzyme (Homo sapiens, UniProt P27487); test: Stability against DPP IV enzyme; assay type: in vitro ADME; conditions: 2 μM, 37° C.; for half-life: read-out: half-life (t1/2) with DPP-IV enzyme
Chain of DPP IV enzyme (P27487 whole entry, species assumed): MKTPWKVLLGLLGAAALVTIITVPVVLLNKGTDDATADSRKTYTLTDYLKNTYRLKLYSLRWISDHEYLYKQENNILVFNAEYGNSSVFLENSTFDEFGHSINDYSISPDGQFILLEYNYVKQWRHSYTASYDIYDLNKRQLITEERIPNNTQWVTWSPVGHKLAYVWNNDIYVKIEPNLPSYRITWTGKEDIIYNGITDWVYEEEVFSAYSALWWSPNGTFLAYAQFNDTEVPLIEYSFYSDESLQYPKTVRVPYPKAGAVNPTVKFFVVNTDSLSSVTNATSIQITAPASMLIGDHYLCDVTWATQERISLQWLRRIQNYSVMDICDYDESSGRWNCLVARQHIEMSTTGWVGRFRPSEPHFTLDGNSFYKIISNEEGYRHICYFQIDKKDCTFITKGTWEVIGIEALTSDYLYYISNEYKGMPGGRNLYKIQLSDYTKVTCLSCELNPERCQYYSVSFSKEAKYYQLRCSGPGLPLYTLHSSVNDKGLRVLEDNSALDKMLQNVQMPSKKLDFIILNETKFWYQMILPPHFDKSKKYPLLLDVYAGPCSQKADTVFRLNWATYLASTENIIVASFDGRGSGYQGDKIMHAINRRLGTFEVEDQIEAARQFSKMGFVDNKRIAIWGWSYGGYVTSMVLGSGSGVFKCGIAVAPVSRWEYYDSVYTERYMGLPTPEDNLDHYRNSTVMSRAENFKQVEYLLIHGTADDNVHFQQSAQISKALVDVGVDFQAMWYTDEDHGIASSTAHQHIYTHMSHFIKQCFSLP
Experimental: as §1

Row | % degradation in 24 h when incubated with human plasma [1] | half-life [1] | % degradation in 24 h when incubated with liver microsomes [2] | half-life [2] | % degradation in 24 h when incubated with simulated gastric fluid [3] | half-life [3] | % degradation in 24 h when incubated with simulated intestinal fluid [5] | half-life [5] | % degradation in 24 h when incubated with DPP-IV enzyme [6] | half-life [6] | half-life (t1/2) in liver microsomes [2] | half-life (t1/2) in human plasma [1] | Structure (SMILES) | Insulin secretion ([4]; 0.1 nM test compd.) | Insulin secretion ([4]; 1 nM test compd.) | Insulin secretion ([4]; 10 nM test compd.)
1 | 70% |  | 100% | 0.5 h | 100% | 0.5 h | 100% | 0.5 h | 86% |  |  | (9) h | CCc1cc(OC)ccc1-c1ccc(CC(C)(NC(=O)[C@H](CC(=O)O)NC(=O)[C@H](CO)NC(=O)[C@@H](NC(=O)[C@H](Cc2ccccc2)NC(=O)[C@@H](NC(=O)CNC(=O)[C@H](CCC(=O)O)NC(=O)C2(C)CCCN2C(=O)[C@H](Cc2c[nH]cn2)NC(=O)[C@@H](N)C(C)C)[C@@H](C)O)[C@@H](C)O)C(=O)NC(C)(CCCc2ccccc2)C(N)=O)cc1 (stereo partly drawn) [compound 140] (H-VH[ξαMeP]EGTFTSD[ξαMeBip(2'-Et,4'-OMe)][ξαMe(hhPhe)]-NH2) | 16.6 ± 0.41 pg/µg/h | 22.9 ± 0.32 pg/µg/h | 36.7 ± 0.11 pg/µg/h
2 | 70% |  | 100% | 0.5 h | 100% | 0.5 h | 100% | 0.5 h | 72% |  |  | (9) h | CCc1cc(OC)ccc1-c1ccc(CC(C)(NC(=O)[C@H](CC(=O)O)NC(=O)C(C)(CO)NC(=O)[C@@H](NC(=O)C(C)(Cc2ccccc2F)NC(=O)[C@@H](NC(=O)CNC(=O)[C@H](CCC(N)=O)NC(=O)[C@H](CO)NC(=O)[C@H](Cc2c[nH]cn2)NC(=O)[C@@H](N)C(C)C)[C@@H](C)O)[C@@H](C)O)C(=O)NC(C)(CCCc2ccccc2)C(N)=O)cc1 (stereo partly drawn) [compound 165] (H-VHSQGT[ξαMePhe(2-F)]T[ξαMeS]D[ξαMeBip(2'-Et,4'-OMe)][ξαMe(hhPhe)]-NH2) | 12.1 ± 0.42 pg/µg/h | 14.6 ± 0.41 pg/µg/h | 27.8 ± 0.46 pg/µg/h
3 | 00% | > 24 h | 81% | 2 h | 52% | 4 h | 00% | > 24 h | 00% | > 24 h |  |  | CCc1cc(OC)ccc1-c1ccc(CC(C)(NC(=O)[C@H](CC(=O)O)NC(=O)C(C)(CO)NC(=O)[C@@H](NC(=O)C(C)(Cc2ccccc2F)NC(=O)[C@@H](NC(=O)CNC(=O)[C@H](CCC(=O)O)NC(=O)[C@H](C)NC(=O)[C@H](Cc2c[nH]cn2)NC(=O)[C@@H](N)C(C)C)[C@@H](C)O)[C@@H](C)O)C(=O)NC(C)(CCCc2ccccc2)C(N)=O)cc1 (stereo partly drawn) [compound 170] (H-VHAEGT[ξαMePhe(2-F)]T[ξαMeS]D[ξαMeBip(2'-Et,4'-OMe)][ξαMe(hhPhe)]-NH2) | 12.3 ± 0.33 pg/µg/h | 14.8 ± 0.16 pg/µg/h | 28.1 ± 0.22 pg/µg/h

The next lines start with the compound.

Row | Structure (SMILES) | % degradation in 24 h when incubated with human plasma [1] | half-life [1] | % degradation in 24 h when incubated with liver microsomes [2] | half-life [2] | % degradation in 24 h when incubated with simulated gastric fluid [3] | half-life [3] | % degradation in 24 h when incubated with simulated intestinal fluid [5] | half-life [5] | % degradation in 24 h when incubated with DPP-IV enzyme [6] | half-life [6] | half-life (t1/2) in liver microsomes [2] | half-life (t1/2) in human plasma [1] | Insulin secretion ([4]; 0.1 nM test compd.) | Insulin secretion ([4]; 1 nM test compd.) | Insulin secretion ([4]; 10 nM test compd.)
4 | CCc1cc(OC)ccc1-c1ccc(CC(NC(=O)[C@H](CC(=O)O)NC(=O)[C@H](CO)NC(=O)[C@@H](NC(=O)C(C)(Cc2ccccc2F)NC(=O)[C@@H](NC(=O)CNC(=O)[C@H](CCC(N)=O)NC(=O)[C@H](C)NC(=O)[C@H](Cc2c[nH]cn2)NC(=O)[C@@H](N)C(C)C)[C@@H](C)O)[C@@H](C)O)C(=O)NC(C)(CCCc2ccccc2)C(N)=O)cc1 (stereo partly drawn) [compound 92] (H-VHAQGT[ξαMePhe(2-F)]TSD[ξBip(2'-Et-4'-OMe)][ξαMe(hhPhe)]-NH2) | 00% | > 24 h | 84% | 2 h | 55% | 4 h | 00% | > 24 h | 00% | > 24 h |  |  | 16.9 ± 0.22 pg/µg/h | 22.8 ± 0.31 pg/µg/h | 36.7 ± 0.34 pg/µg/h
5 | CCc1cc(OC)ccc1-c1ccc(CC(NC(=O)C(C)(CC(=O)O)NC(=O)C(C)(CO)NC(=O)[C@@H](NC(=O)[C@H](Cc2ccccc2)NC(=O)[C@@H](NC(=O)CNC(=O)[C@H](CCC(N)=O)NC(=O)[C@H](C)NC(=O)[C@H](Cc2c[nH]cn2)NC(=O)[C@@H](N)C(C)C)[C@@H](C)O)[C@@H](C)O)C(=O)NC(C)(CCCc2ccccc2)C(N)=O)cc1 (stereo partly drawn) [compound 108] (H-VHAQGTFT[ξαMeS][ξαMeD][ξBip(2'-Et-4'-OMe)][ξαMe(hhPhe)]-NH2) | 00% | > 24 h | 33% |  | 00% | > 24 h | 00% | > 24 h | 00% | > 24 h | (5) h |  | 11.9 ± 0.17 pg/µg/h | 14.2 ± 0.13 pg/µg/h | 27.6 ± 0.16 pg/µg/h
6 | CCc1cc(OC)ccc1-c1ccc(CC(NC(=O)C(C)(CC(=O)O)NC(=O)C(C)(CO)NC(=O)[C@@H](NC(=O)[C@H](Cc2ccccc2)NC(=O)[C@@H](NC(=O)CNC(=O)[C@H](CCC(=O)O)NC(=O)[C@H](C)NC(=O)[C@H](Cc2c[nH]cn2)NC(=O)[C@@H](N)C(C)C)[C@@H](C)O)[C@@H](C)O)C(=O)NC(C)(CCCc2ccccc2)C(N)=O)cc1 (stereo partly drawn) [compound 112] (H-VHAEGTFT[ξαMeS][ξαMeD][ξBip(2'-Et-4'-OMe)][ξαMe(hhPhe)]-NH2) | 71% |  | 100% | 0.5 h | 100% | 0.5 h | 100% | 0.5 h | 70% |  |  | (9) h | 12.3 ± 0.33 pg/µg/h | 14.8 ± 0.16 pg/µg/h | 28.1 ± 0.22 pg/µg/h
